According to US9738656B2, “Pyranodipyridine compound” (Eisai R&D Management Co., Ltd., priority 2015, dated 2017):
Where two headings read alike, the source gives them in different places.

Columns and labels:
male ddY mice [1] = assay: Murine 6 Hz convulsion models (6 Hz, 44 mA corneal stimulation); type: in vivo; conditions: for ED50: Mus musculus, 25 min; for Therapeutic Index: TD50/ED50 (rotarod test-1 / 6 Hz convulsion model)
Description: (§1) With regard to the AMPA receptor inhibitory action of the compounds, AMPA-induced intraneuronal calcium entry-suppressing action was examined using a primary culture system of embryonic rat cerebral cortex neurons. […] AMPA inhibitor-induced central nervous system depressant action such as loss of coordination was evaluated using a rotarod performance test.
Immediately after the rotarod performance test-1 was completed, the cornea was stimulated by passing an electrical current (6 Hz, 44 mA, 0.2-millisecond pulse, for 3 seconds) from a copper electrode moistened with physiological saline, and the presence or absence of the development of a seizure was observed. The seizure was determined by the development of akinesia, jaw and forelimb clonus, whisker tremors, and Straub tail.
Further, for the purpose of evaluating the safety margin of each of the compounds of the present invention, the therapeutic index (TD50/ED50) was calculated by comparing the seizure inhibitory action (ED50) in the 6 Hz convulsion models and the neurotoxic action (TD50) in the rotarod performance test-1.

AMPA receptor = assay: AMPA-induced intraneuronal calcium entry-suppressing action (primary culture of embryonic rat cerebral cortex neurons, Fura 2-AM); type: cell-based; conditions: AMPA stimulation, intracellular calcium increase, read-out: IC50 for AMPA inhibition
From the text: The present inventors conducted the following tests, in order to confirm the effects of the compounds of the present invention. With regard to the AMPA receptor inhibitory action of the compounds, AMPA-induced intraneuronal calcium entry-suppressing action was examined using a primary culture system of embryonic rat cerebral cortex neurons. With regard to the anticonvulsant action of the compounds, 6 Hz (44 mA) stimulation-induced convulsions known as a treatment-resistant convulsion model were used. AMPA inhibitor-induced central nervous system depressant action such as loss of coordination was evaluated using a rotarod performance test.
AMPA-Induced Intraneuronal Calcium Entry-Suppressing Action
<Culture conditions> Whole fetuses were removed from the uteri of Wistar rats at embryonic day 18 (Charles River Japan) anesthetized with isoflurane. Whole brains were removed from the whole fetuses, and the cerebral cortex was separated in Leibovitz's L-15 medium or Hanks balanced salt solution containing 20% fetal bovine serum. The resulting material was treated with trypsin/DNase solution at 37° C. for 45 to 60 minutes. After the serum was added to stop the trypsin reaction, the resulting material was centrifuged at 1200 to 1500 rpm for 3 to 5 minutes. After the supernatant was removed, Neurobasal medium (containing 2% B-27 supplement and the like; hereinafter “Neurobasal medium”) was added, and the cells were uniformly dispersed by gently pipetting. The cell suspension was slightly stirred, and then filtered through a nylon mesh filter. Viable cells were counted using a hemocytometer, and diluted with Neurobasal medium to 8 to 10×10^5 cells/mL. The cells were seeded into 96 well plates at 100 μL per well and cultured in a CO2 incubator (5% CO2, 37° C.). The medium was replaced after 24 hours, and neurons cultured for 7 to 21 days were used.
On the day of the assay, the medium was removed and replaced with a calcium measurement solution containing 5 to 10 μmol/L of Fura 2-AM (140 mmol/L sodium chloride, 5 mmol/L potassium chloride, 2 mmol/L magnesium chloride, 3 mmol/L calcium chloride, 24 mmol/L D(+)-glucose, 10 mmol/L HEPES, 1 μmol/L MK-801, pH 7.4), and the cells were treated in a CO2 incubator (5% CO2, 37° C.) for 1 to 2 hours. The calcium measurement solution containing the Fura-2 AM solution was subsequently removed, and the neurons in each well were washed twice with the calcium measurement solution for each well, and then 50 μL of the calcium measurement solution was added to each well. Subsequently, 50 μL of a test compound or medium prepared at a concentration 3-fold higher than the final concentration was added, and the cells were pre-treated for about 15 minutes. The plates were subsequently placed on the Fluorescence Drug Screening System 6000 (Hamamatsu Photonics K.K.). The cells were stimulated by adding to each well 50 μL of an AMPA stimulating solution prepared to 3.3 μmol/L with the calcium measurement solution. Changes in calcium concentration were measured as the changes in fluorescence intensity at excitation wavelengths of 340 nm and 380 nm (measurement wavelength: 540 nm). The rate of change of the intracellular calcium concentration was calculated according to the following equation: Rate of increase of the intracellular calcium concentration (% control)=(Tpost−Tpre)/(Cpost−Cpre)×100
wherein Tpost: the proportion of fluorescence of sample wells after stimulation; Tpro: the proportion of fluorescence of sample wells before stimulation; Cpost: the proportion of fluorescence of control wells after stimulation; and Cpre: the proportion of fluorescence of control wells before stimulation.
The IC50 value of the test compound for AMPA inhibition was determined from the rates of increase of the intracellular calcium concentration at various concentrations.

male ddY mice [2] = assay: Rotarod performance test-1; type: in vivo; conditions: oral, 25 minutes after administration, dose at which time of fall is reduced to 50% of medium control
Description: as §1
Rotarod Performance Test-1
(§2) A rotarod (MK-660C from Muromachi Kikai Co., Ltd.) was used for the measurement. The rod (bar) was controlled to be gradually accelerated from its stationary state to a speed of 40 rotations/minute after 180 seconds. As the animals, 5 or 6-week-old male ddY mice (Japan SLC, Inc.) were used. On the day on which the test was performed, the mice were trained under the above-described measurement conditions, and mice that were able to ride on the rod for 1 minute or longer with good reproducibility were selected and subjected to the test.
Each of the compounds was dissolved in a medium (a solution prepared by adding DMSO to a 0.5% methylcellulose solution to a final concentration of 10%. As required, 0.5 to 5% of 1 mol/L hydrochloric acid and 5% Cremophor™ were added), and then orally administered to the mice in optimum four doses between 0.5 to 10 mg/kg. As the control, only the medium was orally administered. After a lapse of 25 minutes from the oral administration of each compound, the mice were subjected to the rotarod performance test. Five to twenty-five mice were used for each compound group.

male ddY mice [3] = assay: Rotarod performance test-2; type: in vivo; conditions: for Time of Fall: mice, oral at the ED50 dose of the 6 Hz model, 25 minutes after administration; for Ratio Relative to the Control Compound: time of fall relative to control compound
Description: Rotarod Performance Test-2
as §2
As the control, only the medium was orally administered. After a lapse of 25 minutes from the oral administration of each compound, the mice were subjected to the rotarod performance test. Five or six mice were used for each compound group. For each compound, the time until the mice fell from the rotarod was measured.

[4] = mice, 6 Hz 44 mA stimulation-induced seizure, oral, after rotarod test-1 (25 minutes after administration), read-out: ED50

N#Cc1ncccc1-c1cc2c(n(-c3ccc(F)cc3)c1=O)COc1cccnc1-2 [Example 11, 3-(7-(4-fluorophenyl)-8-oxo-7,8-dihydro-6H-pyrano[3,2-b:5,4-b′]dipyridin-9-yl)picolinonitrile]
ED50 (male ddY mice [1]; [4]): 1.69 mg/kg | Therapeutic Index (male ddY mice [1]; mice): 2.99 | IC50 (AMPA receptor): 26.3 nM | TD50 (male ddY mice [2]): 5.05 mg/kg, p.o. | Time of Fall (male ddY mice [3]; Table 3): 114.7 s | Ratio Relative to the Control Compound (male ddY mice [3]; Table 3): 9.4

N#Cc1c(F)cccc1-c1cc2c(n(-c3cccnc3)c1=O)COc1cccc(F)c1-2 [Example 16, 2-fluoro-6-(10-fluoro-3-oxo-4-(pyridin-3-yl)-4,5-dihydro-3H-chromeno[3,4-b]pyridin-2-yl)benzonitrile]
ED50 (male ddY mice [1]; po): 1.05 mg/kg | Therapeutic Index (male ddY mice [1]; mice): 1.65 | IC50 (AMPA receptor): < 8 nM | TD50 (male ddY mice [2]): 1.73 mg/kg, p.o. | Time of Fall (male ddY mice [3]; Table 4): 92.8 s | Ratio Relative to the Control Compound (male ddY mice [3]; Table 4): 6.5

O=c1c(-c2ccccc2F)cc2c(n1-c1ccccc1)COc1cccnc1-2 [Example 9, 9-(2-fluorophenyl)-7-phenyl-6H-pyrano[3,2-b:5,4-b′]dipyridin-8(7H)-one]
ED50 (male ddY mice [1]; [4]): 3.38 mg/kg | Therapeutic Index (male ddY mice [1]; mice): 2.83 | IC50 (AMPA receptor): 50.9 nM | TD50 (male ddY mice [2]): 9.55 mg/kg, p.o. | Time of Fall (male ddY mice [3]; Table 3): 109.7 s | Ratio Relative to the Control Compound (male ddY mice [3]; Table 3): 9.0

O=c1c(-c2c(F)c(F)cc(F)c2F)cc2c(n1-c1cccnc1)COc1cccnc1-2 [Example 6, 7-(pyridin-3-yl)-9-(2,3,5,6-tetrafluorophenyl)-6H-pyrano[3,2-b:5,4-b′]dipyridin-8(7H)-one]
ED50 (male ddY mice [1]; po): 2.86 mg/kg | Therapeutic Index (male ddY mice [1]; mice): 1.55 | IC50 (AMPA receptor): 34.6 nM | TD50 (male ddY mice [2]): 4.44 mg/kg, p.o. | Time of Fall (male ddY mice [3]; Table 3): 68.0 s | Ratio Relative to the Control Compound (male ddY mice [3]; Table 3): 5.6

N#Cc1c(F)cccc1-c1cc2c(n(-c3cncc(F)c3)c1=O)COc1cccnc1-2 [Example 15, 2-fluoro-6-(7-(5-fluoropyridin-3-yl)-8-oxo-7,8-dihydro-6H-pyrano[3,2-b:5,4-b′]dipyridin-9-yl)benzonitrile]
ED50 (male ddY mice [1]; po): 1.41 mg/kg | Therapeutic Index (male ddY mice [1]; mice): 1.89 | IC50 (AMPA receptor): 8.2 nM | TD50 (male ddY mice [2]): 2.67 mg/kg, p.o. | Time of Fall (male ddY mice [3]; Table 4): 100.0 s | Ratio Relative to the Control Compound (male ddY mice [3]; Table 4): 7.0

N#Cc1ncccc1-c1cc2c(n(-c3ccccc3F)c1=O)COc1cccnc1-2 [Example 12, 3-(7-(2-fluorophenyl)-8-oxo-7,8-dihydro-6H-pyrano[3,2-b:5,4-b′]dipyridin-9-yl)picolinonitrile]
ED50 (male ddY mice [1]; po): 1.66 mg/kg | Therapeutic Index (male ddY mice [1]; mice): 1.84 | IC50 (AMPA receptor): 33 nM | TD50 (male ddY mice [2]): 3.06 mg/kg, p.o. | Time of Fall (male ddY mice [3]; Table 3): 80.5 s | Ratio Relative to the Control Compound (male ddY mice [3]; Table 3): 6.6

COc1ncc(-n2c3c(cc(-c4cccc(F)c4C#N)c2=O)-c2ncccc2OC3)cn1 [Example 5, 2-fluoro-6-(7-(2-methoxypyrimidin-5-yl)-8-oxo-7,8-dihydro-6H-pyrano[3,2-b:5,4-b′]dipyridin-9-yl)benzonitrile]
ED50 (male ddY mice [1]; [4]): 3.23 mg/kg | Therapeutic Index (male ddY mice [1]; mice): 2.02 | IC50 (AMPA receptor): 31.8 nM | TD50 (male ddY mice [2]): 6.53 mg/kg, p.o. | Time of Fall (male ddY mice [3]; Table 4): 108.7 s | Ratio Relative to the Control Compound (male ddY mice [3]; Table 4): 7.6

N#Cc1ccccc1-c1cc2c(n(-c3ccc(F)cc3)c1=O)COc1cccnc1-2 [Example 10, 2-(7-(4-fluorophenyl)-8-oxo-7,8-dihydro-6H-pyrano[3,2-b:5,4-b′]dipyridin-9-yl)benzonitrile]
ED50 (male ddY mice [1]; po): 2.08 mg/kg | Therapeutic Index (male ddY mice [1]; mice): 1.62 | IC50 (AMPA receptor): 18.8 nM | TD50 (male ddY mice [2]): 3.37 mg/kg, p.o. | Time of Fall (male ddY mice [3]; Table 3): 84.2 s | Ratio Relative to the Control Compound (male ddY mice [3]; Table 3): 6.9

O=c1c(-c2cccc(F)c2Cl)cc2c(n1-c1cncc(F)c1)COc1cccnc1-2 [Example 17, 9-(2-chloro-3-fluorophenyl)-7-(5-fluoropyridin-3-yl)-6H-pyrano[3,2-b:5,4-b′]dipyridin-8(7H)-one]
ED50 (male ddY mice [1]; po): 2 mg/kg | Therapeutic Index (male ddY mice [1]; mice): 2.14 | IC50 (AMPA receptor): 17.7 nM | TD50 (male ddY mice [2]): 4.27 mg/kg, p.o. | Time of Fall (male ddY mice [3]; Table 4): 147.0 s | Ratio Relative to the Control Compound (male ddY mice [3]; Table 4): 10.3

N#Cc1c(F)cccc1-c1cc2c(n(-c3cncnc3)c1=O)COc1cccnc1-2 [Example 18, 2-fluoro-6-(8-oxo-7-(pyrimidin-5-yl)-7,8-dihydro-6H-pyrano[3,2-b:5,4-b′]dipyridin-9-yl)benzonitrile]
ED50 (male ddY mice [1]; po): 2 mg/kg | Therapeutic Index (male ddY mice [1]; mice): 2.02 | IC50 (AMPA receptor): 29 nM | TD50 (male ddY mice [2]): 4.03 mg/kg, p.o. | Time of Fall (male ddY mice [3]; Table 4): 102.2 s | Ratio Relative to the Control Compound (male ddY mice [3]; Table 4): 7.1

N#Cc1ccccc1-n1nc2c(c(-c3cccnc3)c1=O)COc1ccccc1-2 [Control Compound, 2-(3-oxo-4-(pyridin-3-yl)-3,5-dihydro-2H-chromeno[4,3-c]pyridazin-2-yl)benzonitrile, reference compound]
ED50 (male ddY mice [1]; po): 3.96 mg/kg | Therapeutic Index (male ddY mice [1]; mice): 0.69 | IC50 (AMPA receptor): 20 nM | TD50 (male ddY mice [2]): 2.73 mg/kg, p.o. | Time of Fall (male ddY mice [3]; Table 3): 12.2 s | Ratio Relative to the Control Compound (male ddY mice [3]; Table 3): 1.0 | Time of Fall (male ddY mice [3]; Table 4): 14.3 s | Ratio Relative to the Control Compound (male ddY mice [3]; Table 4): 1.0
